Molecular target: T1, aSyn fibril growth (in vitro aSyn fibrils) (Homo sapiens, UniProt P37840)
T1 construct: made in house; host or cells: E. coli BL21-CodonPlus (DE3)-RIL, pRK172 plasmid
Assay: FlAsH fluorescence fibril growth assay with in vitro assembled aSyn fibril seeds
Assay type: biochemical
Text: Inhibition of fibril growth by small molecule compounds is likely to be mediated primarily by binding interactions with either monomer, fibrils, or both. However, secondary nucleation may occur and contribute to fibril growth under some conditions, and compounds may affect growth through interaction with oligomeric intermediates to inhibit conversion to fibrils. In one proposed mechanism, a compound binds to the end surface of fibrils and interferes with the binding of the new monomer required to extend the seed or fibril (FIG. 1). Since binding will deplete the free concentration of the inhibitor, measured IC50 values will be proportional to the concentration of the binding target (fibril seeds) and proportional to the concentration of monomer, with which the inhibitor competes for binding.
The fibril growth assay was performed similarly to previously published methods. […] Maximum inhibition is calculated as (Intensity100μM−Intensity0μM)/Intensity0μM×100% where Intensity100μM and Intensity0μM is the intensity at 100 μM of compound and intensity with no compound in the presence of fibrils and monomers.

Work on `CCOC(=O)C1CCN(Cc2cc(OC)c(O)c(OC)c2)CC1` [Compound 1, ethyl 1-[(4-hydroxy-3,5-dimethoxyphenyl)methyl]piperidine-4-carboxylate] yielded an inhibition at 100 µM (at 100 μM compound versus no compound, read-out: Max Inhibition [%] [mean ± std]) of 79% and an IC50 (read-out: IC50 [95% Cl] [μM] [mean ± std], 1 μM fibril seeds, 3 μM C2-aSyn monomer, 3-hour incubation) of 18 µM.
